Measured values: PubChem BioAssay (NCI)
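All cell lines were grown in 96-well plates and treated with compound for 48 hours. GI50 = concentration required for 50% inhibition of growth. TGI denotes the concentration required for complete inhibition of growth.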

Columns and labels:
Assay in all cases: inhibition of tumour cell growth, NCI panel, 48 h
BT-549 breast = system: BT-549 breast
M14 melanoma = system: M14 melanoma
SNB-19 CNS = system: SNB-19 CNS
OVCAR-3 ovarian = system: OVCAR-3 ovarian
OVCAR-4 ovarian = system: OVCAR-4 ovarian
TK-10 renal = system: TK-10 renal
DU-145 prostate = system: DU-145 prostate
SF-295 CNS = system: SF-295 CNS
UACC-257 melanoma = system: UACC-257 melanoma
MALME-3M melanoma = system: MALME-3M melanoma

Structure (SMILES) | GI50 (BT-549 breast) [µM] | TGI (BT-549 breast) [µM] | GI50 (M14 melanoma) [µM] | TGI (M14 melanoma) [µM] | GI50 (SNB-19 CNS) [µM] | TGI (SNB-19 CNS) [µM] | GI50 (OVCAR-3 ovarian) [µM] | TGI (OVCAR-3 ovarian) [µM] | GI50 (OVCAR-4 ovarian) [µM] | TGI (OVCAR-4 ovarian) [µM] | GI50 (TK-10 renal) [µM] | TGI (TK-10 renal) [µM] | GI50 (DU-145 prostate) [µM] | TGI (DU-145 prostate) [µM] | GI50 (SF-295 CNS) [µM] | TGI (SF-295 CNS) [µM] | GI50 (UACC-257 melanoma) [µM] | TGI (UACC-257 melanoma) [µM] | GI50 (MALME-3M melanoma) [µM] | TGI (MALME-3M melanoma) [µM]
Cc1cc2c(cc1Cl)SC(=Nc1ccc(Cl)cc1)N(S(=O)(=O)c1ccc(Br)s1)S2(=O)=O | 19.2 | 48.8 | 21.9 | 56.5 | 13.7 | 46.4 | 15 | 31.1 | 18.4 | 66.3 | 19.9 | 49.6 | 13.3 | 26.1 | 24.7 | 60.5 | 16 | 38.7 | – | –
CCN(CC)CCN1C(=O)C2C3C(C)=CC(OC(C)=O)(CC3C)C2C1=O (stereo not given) | > 100 | > 100 | > 100 | > 100 | > 100 | > 100 | – | – | > 100 | > 100 | > 100 | > 100 | > 100 | > 100 | > 100 | > 100 | > 100 | > 100 | > 100 | > 100
O=c1c2ccccc2c(=O)n2n1-c1cccc(c1)CSSCc1cccc-2c1 | – | – | – | – | > 100 | > 100 | > 100 | > 100 | > 100 | > 100 | > 100 | > 100 | – | – | – | > 100 | – | – | > 100 | > 100
CCN(CC)CC(C(=O)Nc1c(C)cccc1C)/C(C)=N\NC(=S)NN (stereo not given) | – | – | – | > 100 | – | – | – | > 100 | – | – | – | > 100 | – | – | – | > 100 | – | > 100 | – | > 100
O=C1CN=C(c2ccccc2)c2ccncc2N1 | – | – | – | > 100 | – | > 100 | – | > 100 | – | > 100 | – | > 100 | – | – | – | > 100 | – | 72.5 | – | > 100
O=c1[nH]c(=O)n(Cc2ccc(C34CC5CC(CC(C5)C3)C4)c(O)c2)cc1F | 14.4 | 28.1 | 11.5 | 29.2 | 15.6 | 34 | 3.74 | 17.8 | 13.8 | 30.2 | 15.4 | 33.7 | 16.7 | 32.4 | 9.62 | 27.2 | – | – | 14.6 | 30.9
CCOP(=O)(OCC)C(C(=O)OC)C(=O)C(=O)Nc1cccc([N+](=O)[O-])c1 (stereo not given) | – | – | – | > 100 | – | > 100 | – | > 100 | – | > 100 | – | > 100 | – | – | – | > 100 | – | > 100 | – | > 100
CC(C)N1CCOC(c2ccc(O)c(O)c2)C1 (stereo not given) | – | – | – | > 100 | – | > 100 | – | > 100 | – | > 100 | – | > 100 | – | – | – | > 100 | – | > 100 | – | > 100
OC(c1ccccc1)c1c(-c2ccccc2)[nH]c(-c2ccccc2)c1C(O)c1ccccc1 (stereo not given) | – | – | – | 11.8 | – | 23.4 | – | 8.33 | – | 4.82 | – | 18.9 | – | 20 | – | 38.6 | – | 8.61 | – | 7.17
CC1COS(=O)N1c1ccccc1 (stereo not given) | – | – | – | > 100 | – | – | – | – | – | > 100 | – | > 100 | – | – | – | > 100 | – | > 100 | – | > 100
